According to patent publication US20070197660A1, “Compounds for modulating cell proliferation” (The Hospital for Sick Children, priority 2003, published 2007):
Read-outs that look alike come from different tables or passages of the source.

Tests used:
Format in all cases: cell-based
OCI-AML-3 cells = assay: Killing of AML3 acute myeloid leukemia cells in culture (colony assay); conditions: Homo sapiens, colonies >20 cells scored at 5-6 days, methylcellulose
Experimental: OCI-AML-3 cells are plated in 35 mm petri dishes (Nunc, Gibco) in 1 mL volumes at a density of 3.3×10^3 cells/mL, in the absence of exogenous growth factors, containing alpha MEM plus 20% FCS (Cansera, Rexdale Ont.), and 0.9% (vol/vol) methylcellulose (Fluka, Switzerland) and various concentrations of test compounds. Cell cultures are incubated in a humidified atmosphere at 37° C. with 5% CO2. Colonies containing more than 20 cells are scored, using an inverted microscope, at 5-6 days. Results see Tables 4 and 8.

NBM (BFU-E) = assay: Effect upon normal bone marrow differentiation in culture (CFU-GEMM assay, BFU-E); conditions: BFU-E colonies
From the text: A CFU-GEMM assay may be performed according to Fauser and Messner (1978, Blood, 52(6) 143-8) and Messner and Fausser (1980, Blut, 41(5) 327-33).

Z119 cells = assay: Killing of Philadelphia positive Z119 acute lymphoblastic leukemia cells in culture (colony assay); conditions: 168 h, Z119 Ph+ ALL cells, colonies >20 cells counted at 7 days or earlier, methylcellulose, read-out: ALL (Z 119) IC 50
Experimental: Z119 cells are plated in 1 mL volumes at a density of 1×10^4 cells/mL, in the absence of exogenous growth factors, into 35 mm petri dishes (Nunc, Gibco) containing IMDM (OCI, Toronto) plus 20% FCS (Cansera Rexdale, ON) in 0.9% (vol/vol) methylcellulose (Fluka, Switzerland) with various concentrations of test compounds. Cultures are set at 37° C., 5% CO2 in a humidified atmosphere. Colonies consisting of more than 20 cells are counted at 7 days or earlier using an inverted microscope. Results see Tables 4 and 8.

[1] = Table 4, read-out: AML (OCI AML-3) IC 50
[2] = Table 4, read-out: NBM (BFU-E) IC 50
[3] = Table 8, read-out: AML (OCI AML-3) IC 50
[4] = Table 8, read-out: NBM (BFU-E) IC 50

In the case of `COCCOCCOCCOC(=O)/C(C#N)=C/C=C/c1ccc(O)c(O)c1` [CRIV-42, 2-Cyano-5-(3,4-dihydroxyphenyl)-penta-2E,4E-dienoic acid 2-[2-(2-methoxyethoxy)ethoxy]ethyl ester], the IC50 (OCI-AML-3 cells; [1]) is reported as 90 nM, the IC50 (NBM (BFU-E); [2]) is reported as ≥ 10000 nM and the IC50 (Z119 cells; Table 4) is reported as ≥ 500 nM.

In the case of `COc1cc(/C=C/C=C(\C#N)C(=O)OCc2ccccc2)cc(OC)c1O` [CRIX-38, 2-Cyano-5-(4-hydroxy-3,5-dimethoxyphenyl)-penta-2E,4E-dienoic acid benzyl ester], the IC50 (OCI-AML-3 cells; [1]) is reported as > 500 nM, the IC50 (NBM (BFU-E); [2]) is reported as ≤ 10000 nM and the IC50 (Z119 cells; Table 4) is reported as > 1000 nM.

In the case of `N#C/C(=C\C=C\c1ccc(O)c(O)c1)C(=O)OCc1ccccc1` [CRIX-39, 2-Cyano-5-(3,4-dihydroxyphenyl)-penta-2E,4E-dienoic acid benzyl ester], the IC50 (OCI-AML-3 cells; [1]) is reported as 90 nM, the IC50 (NBM (BFU-E); [2]) is reported as 8000 nM and the IC50 (Z119 cells; Table 4) is reported as ≥ 600 nM.

With `N#C/C(=C\C=C\c1ccc(O)c(O)c1)S(=O)(=O)c1ccccc1` [CRVIII-33, 2-Benzenesulfonyl-5-(3,4-dihydroxyphenyl)-penta-2E,4E-dienenitrile] the IC50 (OCI-AML-3 cells; [3]) was > 500 nM, the IC50 (NBM (BFU-E); [4]) was 12000 nM and the IC50 (Z119 cells; Table 8) was ≥ 550 nM.

In the case of `COc1cc(/C=C/C=C(\C#N)S(=O)(=O)c2ccccc2)cc(OC)c1O` [CRVIII-34, 2-Benzenesulfonyl-5-(4-hydroxy-3,5-dimethoxyphenyl)-penta-2E,4E-dienenitrile], the IC50 (OCI-AML-3 cells; [3]) is reported as > 500 nM, the IC50 (NBM (BFU-E); [4]) is reported as ≤ 10000 nM and the IC50 (Z119 cells; Table 8) is reported as > 1000 nM.

`N#C/C(=C\C=C\c1ccc([N+](=O)[O-])cc1)S(=O)(=O)c1ccccc1` [CRVIII-35, 2-Benzenesulfonyl-5-(4-nitrophenyl)-penta-2E,4E-dienenitrile] was tested, and the IC50 (OCI-AML-3 cells; [3]) was > 500 nM, the IC50 (NBM (BFU-E); [4]) was > 5000 nM and the IC50 (Z119 cells; Table 8) was > 1000 nM.

With `N#C/C(=C\C=C\c1ccc(O)c(O)c1)S(=O)(=O)c1ccccn1` [CRVIII-50, 5-(3,4-Dihydroxyphenyl)-2-(pyridine-2-sulfonyl)-penta-2E,4E-dienenitrile] the IC50 (OCI-AML-3 cells; [3]) was ≥ 250 nM, the IC50 (NBM (BFU-E); [4]) was ≤ 5000 nM and the IC50 (Z119 cells; Table 8) was ≥ 170 nM.

`N#C/C(=C\C=C\c1ccc(O)c(O)c1)S(=O)(=O)c1ccc(Cl)cc1` [CRVIII-51, 2-(4-Chlorobenzenesulfonyl)-5-(3,4-dihydroxyphenyl)-penta-2E,4E-dienenitrile] was tested, and the IC50 (OCI-AML-3 cells; [3]) was 250 to 500 nM, the IC50 (NBM (BFU-E); [4]) was ≥ 5000 nM and the IC50 (Z119 cells; Table 8) was 230 nM.

With `Cc1ccc(S(=O)(=O)/C(C#N)=C/C=C/c2ccc(O)c(O)c2)cc1` [CRVIII-52, 5-(3,4-Dihydroxyphenyl)-2-(toluene-4-sulfonyl)-penta-2E,4E-dienenitrile] the IC50 (OCI-AML-3 cells; [3]) was 250 to 500 nM, the IC50 (NBM (BFU-E); [4]) was ≤ 10000 nM and the IC50 (Z119 cells; Table 8) was 250 to 500 nM.

`CS(=O)(=O)/C(C#N)=C/C=C/c1ccc(O)c(O)c1` [CRVIII-53, 5-(3,4-Dihydroxyphenyl)-2-methanesulfonyl-penta-2E,4E-dienenitrile] was tested, and the IC50 (OCI-AML-3 cells; [3]) was 250 to 500 nM, the IC50 (NBM (BFU-E); [4]) was ≤ 10000 nM and the IC50 (Z119 cells; Table 8) was 450 nM.

`COCCOCCOCCOC(=O)/C(C#N)=C/C=C/c1cc(OC)c(O)c(OC)c1` [GRIV-46, 2-Cyano-5-(4-hydroxy-3,5-dimethoxyphenyl)-penta-2E,4E-dienoic acid 2-[2-(2-methoxyethoxy)ethoxy]ethyl ester] was tested, and the IC50 (OCI-AML-3 cells; [1]) was ≥ 500 nM, the IC50 (NBM (BFU-E); [2]) was ≥ 10000 nM and the IC50 (Z119 cells; Table 4) was > 500 nM.
